{"source": "patent US6670395B1", "about": "“Prophylactic and therapeutic treatment of skin sensitization and irritation” (Bristol-Myers Squibb Company, priority 1996, dated 2003)", "key": {"[1]": {"tested_on": "Balb/c mice", "experiment": "Counter sensitizer to DNCB: ear swelling after DNCB challenge of sensitized mice", "type": "in vivo", "protocol": "(§1) A 1.0% (w/v) solution of phenoxyacetic acid methyl ester (PAME, a compound of Formula I wherein R is methyl) was prepared in a gel formulation (2.5% HPMC in 75% ethanol). The same gel formulation served as a negative control. For sensitization, a 1% (w/v) solution of dinitrochlorobenzene (DNCB) was prepared in acetone.\n(§2) Twenty-four (24) Balb/c mice had their back skin shaved. The mice were divided into three equal groups. The first group acted as a negative control and received on day 0 an application of acetone. The second and third groups each received 20 μL of 1% DNCB in acetone on the exposed back skin.\n[…] Then, 10 minutes after challenge, the first and second groups received 100 μL of 1% HPMC in 75% ethanol. The third group received 1% of PAME in the HPMC gel.\n(§3) Adverse reaction to the challenge with DNCB was determined by measuring the thickness of the mice ears before and after challenge to determine the amount of swelling, and then comparing the degree of swelling for mice treated in accordance with the invention (Group III) with Groups I and Groups II."}, "[2]": {"tested_on": "Balb/c female mice", "experiment": "Irritation induced by retinoic acid: mouse ear thickness", "type": "in vivo", "protocol": "(§4) Thirty (30) Balb/c female mice were obtained from Sprague Dawley Labs. A 1.0% (w/v) solution of PAME was prepared in a gel formulation (2.5% HPMC in 75% ethanol). A second solution containing a 2:1 volume ratio of acetone to ethanol was also prepared. A 20% (w/v) solution of captopril and the second solution (sufficient to elicit a strong irritant response), was also prepared. In addition a 1.0% HPMC solution was prepared as a placebo.\n(§5) The Group I mice (10 mice) received the second solution and then 10 minutes later the HPMC solution. The positive control mice (10) designated as Group II received the captopril solution to the right ear followed by the HPMC solution. The experimental group of mice (10) (Group III) received the captopril solution to the right ear followed ten minutes later by the PAME solution.\n(§6) The thickness of the ears was measured after 2 hours when maximum redness and swelling from the captopril solution were observed.\nThe procedures of […] were repeated except that captopril was replaced by retinoic acid in an amount of 1% (w/v) in a 1% HPMC gel."}, "[3]": {"tested_on": "Balb/c mice", "experiment": "Counter sensitizer to oxazolone: ear swelling after challenge of sensitized mice", "type": "in vivo", "protocol": "as §1, §2\nAll three groups were challenged on the right ear with 20μL of 1% DNCB in acetone five (5) days after sensitization. Then, 10 minutes after challenge, the first and second groups received 100 μL of 1% HPMC in 75% ethanol. The third group received 1% of PAME in the HPMC gel.\nas §3\nThe procedures of Example 1 were repeated except that the mice were sensitized with a 1% (w/v) solution of oxazolone."}, "[4]": {"tested_on": "Balb/c female mice", "experiment": "Irritation induced by dinitrochlorobenzene: mouse ear thickness", "type": "in vivo", "protocol": "as §4, §5, §6\nThe procedures of Example 4 were repeated except that captopril was replaced with dinitrochlorobenzene (DNCB) in an amount of 2.0% (w/v) in a 1% HPMC gel."}, "[5]": {"tested_on": "Balb/c female mice", "experiment": "Irritation induced by captopril: mouse ear thickness", "type": "in vivo", "protocol": "as §4, §5, §6"}, "[6]": {"tested_on": "Balb/c female mice", "experiment": "Irritation induced by phorbol myristate: mouse ear thickness", "conditions": "in vivo", "protocol": "as §4, §5, §6\nThe procedures of Example 4 were repeated except that captopril was replaced with phorbol myristate (12-tetradecanyol-13-phorbol myristic acid) in an amount of 0.1% (w/v) in a 1% HPMC gel. Phenoxyacetic acid was also tested in this protocol."}, "[7]": {"conditions": "PAME (2 mg) in HPMC gel + oxazolone (100 μg), 24 hours"}}, "data": [{"smiles": "COC(=O)COc1ccccc1", "note": "[PAME, phenoxyacetic acid methyl ester]", "values": [{"measurement": "EAR SWELLING", "setting": "[1]; PAME (1 mg) in HPMC gel + DNCB (100 μg), 24 hours", "result": 12, "unit": "MM × 10^−3"}, {"measurement": "EAR THICKNESS", "setting": "[1]; PAME (1 mg) in HPMC gel + DNCB (100 μg), 24 hours, right ear", "result": "240 ± 6", "unit": "MM × 10^−3"}, {"measurement": "% SUPPRESSION", "setting": "[1]; PAME (1 mg) in HPMC gel + DNCB (100 μg), 24 hours, vs DNCB only", "result": 62, "unit": "%"}, {"measurement": "adverse reaction of the skin induced by sensitization with DNCB (in words)", "setting": "[1]; administered alone, prophylactically", "result": "prevented an adverse reaction of the skin"}, {"measurement": "EAR THICKNESS", "setting": "[2]; PAME + retinoic acid 1% (w/v), 2 hours", "result": "237 ± 11", "unit": "MM × 10^−3"}, {"measurement": "% SUPPRESSION", "setting": "[2]; PAME + retinoic acid, 2 hours, vs retinoic acid only", "result": 100, "unit": "%"}, {"measurement": "inflammation induced by retinoic acid (in words)", "setting": "[2]; mouse, in vivo", "result": "suppressed inflammation"}, {"measurement": "EAR SWELLING", "setting": "[3]; [7]", "result": 16, "unit": "MM × 10^−3"}, {"measurement": "EAR THICKNESS", "setting": "[3]; [7]", "result": "278 ± 15", "unit": "MM × 10^−3"}, {"measurement": "% SUPPRESSION", "setting": "[3]; PAME (2 mg) in HPMC gel + oxazolone (100 μg), 24 hours, vs oxazolone only", "result": 84, "unit": "%"}, {"measurement": "adverse reactions induced by sensitization with oxazolone (in words)", "setting": "[3]; mouse, in vivo", "result": "suppressed adverse reactions"}, {"measurement": "EAR THICKNESS", "setting": "[4]; PAME + DNCB 2.0% (w/v), 2 hours", "result": "249 ± 8", "unit": "MM × 10^−3"}, {"measurement": "% SUPPRESSION", "setting": "[4]; PAME + DNCB, 2 hours, vs DNCB only", "result": 100, "unit": "%"}, {"measurement": "inflammation induced by contact with DNCB (in words)", "setting": "[4]; mouse, in vivo", "result": "suppressed inflammation"}, {"measurement": "EAR THICKNESS", "setting": "[5]; 1.0% PAME gel 10 minutes after 20% captopril solution, 2 hours", "result": "226 ± 5", "unit": "MM × 10^−3"}, {"measurement": "% SUPPRESSION", "setting": "[5]; PAME + captopril, 2 hours, vs captopril only", "result": "≈93%"}, {"measurement": "inflammation induced by contact with captopril (in words)", "setting": "[5]; mouse, in vivo", "result": "suppressed inflammation"}, {"measurement": "inflammation induced by contact with phorbol myristate (in words)", "setting": "[6]", "result": "suppressed inflammation"}]}, {"smiles": "O=C(O)COc1ccccc1", "note": "[PHENOXYACETIC ACID, Phenoxyacetic acid]", "values": [{"measurement": "inflammation induced by contact with phorbol myristate (in words)", "setting": "[6]", "result": "suppressed inflammation"}]}]}
